Among the data in ChEMBL document CHEMBL1142317, “In vitro antitumor activity of the water soluble copper(I) complexes bearing the tris(hydroxymethyl)phosphine ligand” (J Med Chem, 2008) are IC50 values, retold here.

Common to all, as to type: functional, cell-based
For assay [1], the system named is HL-60. The experiment in a line: Cytotoxicity against human HL60 cells after 48 hrs by MTT assay. The note with it: HL-60, 48 h.
Assay [2] deals with A549. The experiment in a line: Cytotoxicity against human A549 cells after 48 hrs by MTT assay. As to conditions: A549, 48 h. For orientation: Tetrazolium dyes change colour on reduction, which living cells bring about.
Assay [3] deals with MCF7. The experiment in a line: Cytotoxicity against human MCF7 cells after 48 hrs by MTT assay. The note with it: MCF7, 48 h.
Assay [4] relates to Daudi. In words: Cytotoxicity against human Daudi cells after 48 hrs by MTT assay.
The subject of assay [5] is HepG2. The experiment in a line: Cytotoxicity against human HepG2 cells after 48 hrs by MTT assay. As to conditions: HepG2, 48 h.
For assay [6], the system named is A-375. In words: Cytotoxicity against human A375 cells after 48 hrs by MTT assay. The note with it: A-375, 48 h.
Assay [7] relates to Caco-2. The experiment in a line: Cytotoxicity against human CaCo2 cells after 48 hrs by MTT assay. As to conditions: Caco-2, 48 h.
The subject of assay [8] is HCT-15. In words: Cytotoxicity against human HCT15 cells after 48 hrs by MTT assay. As to conditions: HCT-15, 48 h.
The test system of assay [9] is HeLa. The experiment in a line: Cytotoxicity against human HeLa cells after 48 hrs by MTT assay.
Assay [10] relates to LoVo. In words: Cytotoxicity against human LoVo cells after 48 hrs by MTT assay.
Assay [11] deals with LoVo. The experiment in a line: Cytotoxicity against human multidrug resistant LoVo cells after 48 hrs by MTT assay.

As to `OCP(CO)CCP(CO)CO`, the IC50 (as a rule, the concentration needed to halve the response being measured) was 83.7 µM in [1]; more than 100 µM in assay [2]; more than 100 µM in assay [3]; more than 100 µM in [4]; 71.7 µM in assay [5]; 73.2 µM in assay [6]. Further, the IC50 is 84.1 µM in assay [7], 91.7 µM in [8] and more than 100 µM in assay [9].

Turning to `COc1cccc2c1C(=O)c1c(O)c3c(c(O)c1C2=O)C[C@@](O)(C(=O)CO)C[C@@H]3O[C@H]1C[C@H](N)[C@H](O)[C@H](C)O1` [DOXORUBICIN], the IC50 worked out at 1.46 µM in [10] and 44.9 µM in [11].

In the case of `OCP(CO)CO` [TRIS(HYDROXYMETHYL)PHOSPHINE], the IC50 in [1] is 68.6 µM; in [2], 72.9 µM; in [3] it was 64.2 µM; in [4], more than 100 µM; in assay [5], 98.7 µM; in [6], 88.7 µM. Moreover, the IC50 in assay [7], in assay [8] and in assay [9] was more than 100 µM in each case.
